Measured values taken from PubChem BioAssay AID328 (DTP/NCI, 2004).
Values joined by “and” are separate entries in the source; they are usually repeats but may differ in a detail not shown here. Equal values may be shown once. Toxic doses and inconclusive results are not listed.

Test system: BDF1 mice, P388 leukemia ip, median survival T/C
Assay: NCI In Vivo Anticancer Drug Screen. Data for tumor model P388 Leukemia (intraperitoneal) in B6D2F1 (BDF1) mice
Conditions: endpoint: median survival time, higher = longer survival
Procedure, shortened: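 Each value expresses how treatment altered survival: treated-mouse outcome over vehicle-mouse outcome, both groups bearing the transplanted tumour.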

[1] = dose: 100.0 mg/kg/injection, schedule: Q04DX003 (ip), vehicle: saline with Tween-80
[2] = dose: 100.0 mg/kg/injection, schedule: Q04DX003 (ip), vehicle: Klucel (hydroxypropylcellulose) (HPC)
[3] = dose: 200.0 mg/kg/injection, schedule: Q04DX003 (ip), vehicle: Klucel (hydroxypropylcellulose) (HPC)

**Q.** What does the source list for `O=C(Nc1cc(Cl)c(NC(=O)c2ccccc2)c(Cl)c1)c1ccccc1`?
**A.** T/C (dose: 12.5 mg/kg/injection, schedule: Q01DX001 (ip), vehicle: saline with Tween-80): 100 % of control; T/C (dose: 25.0 mg/kg/injection, schedule: Q01DX001 (ip), vehicle: saline with Tween-80): 90 % of control and 95 % of control; T/C (dose: 50.0 mg/kg/injection, schedule: Q01DX001 (ip), vehicle: saline with Tween-80): 90 % of control; T/C (dose: 100.0 mg/kg/injection, schedule: Q01DX001 (ip), vehicle: saline with Tween-80): 95 % of control

**Q.** With `CCOP(=S)(N1CC1C)N1CC1C` (configuration not stated) as the molecule, how does the T/C (dose: 66.0 mg/kg/injection, schedule: Q04DX003 (ip), vehicle: saline with Tween-80) read?
**A.** 116 % of control

**Q.** And the T/C (dose: 100.0 mg/kg/injection, schedule: Q01DX007 (ip), vehicle: saline with Tween-80)?
**A.** 163 % of control

**Q.** What about the T/C [1] of the same molecule?
**A.** 112 % of control

**Q.** And the T/C (dose: 150.0 mg/kg/injection, schedule: Q01DX007 (ip), vehicle: saline with Tween-80)?
**A.** 159 % of control

**Q.** What about the T/C (dose: 150.0 mg/kg/injection, schedule: Q04DX003 (ip), vehicle: saline with Tween-80) of the same molecule?
**A.** 120 % of control

**Q.** Which results are given for `CCN(CC)CC(Cl)CN(CC)CC`?
**A.** T/C (dose: 50.0 mg/kg/injection, schedule: Q04DX003 (ip), vehicle: saline with Tween-80): 110 % of control; T/C [1]: 105 % of control; T/C (dose: 200.0 mg/kg/injection, schedule: Q04DX003 (ip), vehicle: saline with Tween-80): 100 % of control

**Q.** What does the source list for `O=C(Nc1ccccc1O)/C(Cl)=C/Cl`?
**A.** T/C (dose: 22.0 mg/kg/injection, schedule: Q01DX009 (ip), vehicle: saline with Tween-80): 122 % of control; T/C (dose: 33.0 mg/kg/injection, schedule: Q01DX009 (ip), vehicle: saline with Tween-80): 123 % of control

**Q.** Which results are given for `CCCCCCCCCCCCCCCC(=O)N(CC#N)CC#N`?
**A.** T/C [2]: 100 % of control; T/C [3]: 100 % of control; T/C (dose: 400.0 mg/kg/injection, schedule: Q04DX003 (ip), vehicle: Klucel (hydroxypropylcellulose) (HPC)): 90 % of control

**Q.** What does the source list for `CP(c1ccccc1)c1ccccc1`?
**A.** T/C (dose: 50.0 mg/kg/injection, schedule: Q01DX009 (ip), vehicle: Klucel (hydroxypropylcellulose) (HPC)): 109 % of control; T/C (dose: 50.0 mg/kg/injection, schedule: Q04DX003 (ip), vehicle: Klucel (hydroxypropylcellulose) (HPC)): 113 % of control; T/C [2]: 113 % of control; T/C (dose: 133.0 mg/kg/injection, schedule: Q01DX009 (ip), vehicle: Klucel (hydroxypropylcellulose) (HPC)): 100 % of control; T/C (dose: 200.0 mg/kg/injection, schedule: Q01DX009 (ip), vehicle: Klucel (hydroxypropylcellulose) (HPC)): 107 % of control; T/C [3]: 104 % of control; T/C (dose: 300.0 mg/kg/injection, schedule: Q01DX009 (ip), vehicle: Klucel (hydroxypropylcellulose) (HPC)): 123 % of control

**Q.** For `CS(=O)(=O)OCCN(CCOS(C)(=O)=O)c1ccc(N=O)cc1`, which T/C (dose: 0.5 mg/kg/injection, schedule: Q01DX010 (ip), vehicle: saline) is on record?
**A.** 122 % of control

**Q.** And the T/C (dose: 1.0 mg/kg/injection, schedule: Q01DX010 (ip), vehicle: saline)?
**A.** 104 % of control

**Q.** What about the T/C (dose: 2.0 mg/kg/injection, schedule: Q01DX010 (ip), vehicle: saline) of the same molecule?
**A.** 86 % of control and 113 % of control

**Q.** And the T/C (dose: 62.5 micrograms/kg/injection, schedule: Q01DX010 (ip), vehicle: saline)?
**A.** 158 % of control

**Q.** And the T/C (dose: 125.0 micrograms/kg/injection, schedule: Q01DX010 (ip), vehicle: saline)?
**A.** 166 % of control

**Q.** What does the source list for `C[C@]12CC[C@H](OC(=O)Cc3ccc(N(CCCl)CCCl)cc3)CC1=CC[C@@H]1[C@@H]2CC[C@]2(C)C(=O)CC[C@@H]12`?
**A.** T/C (dose: 115.0 mg/kg/injection, schedule: Q04DX003 (ip), vehicle: saline with Tween-80): 113 % of control; T/C (dose: 200.0 mg/kg/injection, schedule: Q01DX009 (ip), vehicle: saline with Tween-80): 215 % of control; T/C (dose: 400.0 mg/kg/injection, schedule: Q04DX003 (ip), vehicle: alcohol): 159 % of control; T/C (dose: 600.0 mg/kg/injection, schedule: Q04DX003 (ip), vehicle: alcohol): 272 % of control

**Q.** Which T/C (dose: 400.0 mg/kg/injection, schedule: Q01DX009 (ip), vehicle: saline with Tween-80) does the source give for `CNC(=S)N/N=C/c1ccc([N+](=O)[O-])s1` here?
**A.** 94 % of control

**Q.** For `O=Cc1ccc(C=O)c(Cl)c1`, which T/C (dose: 25.0 mg/kg/injection, schedule: Q01DX009 (ip), vehicle: saline with Tween-80) is on record?
**A.** 104 % of control

**Q.** What about the T/C (dose: 50.0 mg/kg/injection, schedule: Q01DX009 (ip), vehicle: saline with Tween-80) of the same molecule?
**A.** 90 % of control

**Q.** What about the T/C (dose: 88.0 mg/kg/injection, schedule: Q04DX003 (ip), vehicle: saline sonified) of the same molecule?
**A.** 105 % of control

**Q.** And the T/C (dose: 100.0 mg/kg/injection, schedule: Q01DX009 (ip), vehicle: saline with Tween-80)?
**A.** 118 % of control

**Q.** And the T/C (dose: 132.0 mg/kg/injection, schedule: Q04DX003 (ip), vehicle: saline sonified)?
**A.** 100 % of control

**Q.** What about the T/C (dose: 200.0 mg/kg/injection, schedule: Q04DX003 (ip), vehicle: saline sonified) of the same molecule?
**A.** 100 % of control

**Q.** What about the T/C (dose: 300.0 mg/kg/injection, schedule: Q04DX003 (ip), vehicle: saline sonified) of the same molecule?
**A.** 120 % of control

**Q.** Which results are given for `c1c2c(cc3c1OCO3)CC1CCCN1CC2` (configuration not stated)?
**A.** T/C (dose: 0.5 mg/kg/injection, schedule: Q01DX009 (ip), vehicle: saline with Tween-80): 108 % of control; T/C (dose: 1.0 mg/kg/injection, schedule: Q01DX009 (ip), vehicle: saline with Tween-80): 100 % of control; T/C (dose: 4.0 mg/kg/injection, schedule: Q01DX009 (ip), vehicle: saline with Tween-80): 108 % of control; T/C (dose: 8.0 mg/kg/injection, schedule: Q01DX009 (ip), vehicle: saline with Tween-80): 108 % of control

**Q.** Which results are given for `CCN(CC)CCNc1ccc([N+](=O)[O-])c2sc3ccccc3c(=O)c12`?
**A.** T/C (dose: 50.0 mg/kg/injection, schedule: Q01DX009 (ip), vehicle: saline sonified): 177 % of control; T/C (dose: 100.0 mg/kg/injection, schedule: Q01DX009 (ip), vehicle: saline sonified): 95 % of control

**Q.** For `N=[N+]=CC(=O)CCC(NC(=O)C(CCC(=O)C=[N+]=N)NC(=O)CCC(N)C(=O)O)C(=O)O` (configuration not stated), which T/C (dose: 0.1 mg/kg/injection, schedule: Q01DX009 (ip), vehicle: Klucel (hydroxypropylcellulose) (HPC)) is on record?
**A.** 88 % of control

**Q.** And the T/C (dose: 0.2 mg/kg/injection, schedule: Q01DX009 (ip), vehicle: Klucel (hydroxypropylcellulose) (HPC))?
**A.** 92 % of control

**Q.** What about the T/C (dose: 0.2 mg/kg/injection, schedule: Q01DX009 (ip), vehicle: water) of the same molecule?
**A.** 163 % of control

**Q.** And the T/C (dose: 0.2 mg/kg/injection, schedule: Q01DX010 (ip), vehicle: other)?
**A.** 170 % of control

**Q.** What about the T/C (dose: 0.3 mg/kg/injection, schedule: Q01DX009 (ip), vehicle: water) of the same molecule?
**A.** 109 % of control

**Q.** What about the T/C (dose: 0.4 mg/kg/injection, schedule: Q01DX009 (ip), vehicle: Klucel (hydroxypropylcellulose) (HPC)) of the same molecule?
**A.** 94 % of control

**Q.** What about the T/C (dose: 0.4 mg/kg/injection, schedule: Q01DX009 (ip), vehicle: water) of the same molecule?
**A.** 150 % of control

**Q.** And the T/C (dose: 0.4 mg/kg/injection, schedule: Q01DX010 (ip), vehicle: other)?
**A.** 210 % of control

**Q.** And the T/C (dose: 0.4 mg/kg/injection, schedule: Q01DX010 (ip), vehicle: water)?
**A.** 172 % of control

**Q.** What about the T/C (dose: 0.5 mg/kg/injection, schedule: Q01DX009 (ip), vehicle: water) of the same molecule?
**A.** 86 % of control

**Q.** What about the T/C (dose: 0.6 mg/kg/injection, schedule: Q01DX009 (ip), vehicle: water) of the same molecule?
**A.** 90 % of control

**Q.** And the T/C (dose: 0.6 mg/kg/injection, schedule: Q01DX010 (ip), vehicle: other)?
**A.** 120 % of control

**Q.** And the T/C (dose: 0.6 mg/kg/injection, schedule: Q01DX010 (ip), vehicle: water)?
**A.** 109 % of control and 110 % of control

**Q.** And the T/C (dose: 0.8 mg/kg/injection, schedule: Q01DX009 (ip), vehicle: Klucel (hydroxypropylcellulose) (HPC))?
**A.** 102 % of control

**Q.** And the T/C (dose: 0.8 mg/kg/injection, schedule: Q01DX010 (ip), vehicle: other)?
**A.** 110 % of control

**Q.** What about the T/C (dose: 0.8 mg/kg/injection, schedule: Q01DX010 (ip), vehicle: water) of the same molecule?
**A.** 100 % of control

**Q.** And the T/C (dose: 1.0 mg/kg/injection, schedule: Q01DX010 (ip), vehicle: water)?
**A.** 90 % of control

**Q.** What about the T/C (dose: 1.6 mg/kg/injection, schedule: Q01DX009 (ip), vehicle: Klucel (hydroxypropylcellulose) (HPC)) of the same molecule?
**A.** 97 % of control

**Q.** And the T/C (dose: 2.5 mg/kg/injection, schedule: Q02DX005 (oral), vehicle: other)?
**A.** 163 % of control

**Q.** And the T/C (dose: 5.0 mg/kg/injection, schedule: Q02DX005 (oral), vehicle: other)?
**A.** 159 % of control

**Q.** What about the T/C (dose: 7.5 mg/kg/injection, schedule: Q04DX003 (ip), vehicle: water) of the same molecule?
**A.** 154 % of control

**Q.** What about the T/C (dose: 10.0 mg/kg/injection, schedule: Q02DX005 (oral), vehicle: other) of the same molecule?
**A.** 177 % of control

**Q.** What about the T/C (dose: 12.5 mg/kg/injection, schedule: Q04DX003 (oral), vehicle: water) of the same molecule?
**A.** 172 % of control

**Q.** What about the T/C (dose: 15.0 mg/kg/injection, schedule: Q02DX005 (oral), vehicle: other) of the same molecule?
**A.** 209 % of control

**Q.** And the T/C (dose: 15.0 mg/kg/injection, schedule: Q04DX003 (ip), vehicle: water)?
**A.** 200 % of control

**Q.** And the T/C (dose: 20.0 mg/kg/injection, schedule: Q02DX005 (oral), vehicle: other)?
**A.** 195 % of control

**Q.** And the T/C (dose: 25.0 mg/kg/injection, schedule: Q04DX003 (oral), vehicle: water)?
**A.** 200 % of control

**Q.** And the T/C (dose: 30.0 mg/kg/injection, schedule: Q04DX003 (ip), vehicle: water)?
**A.** 218 % of control

**Q.** And the T/C (dose: 50.0 mg/kg/injection, schedule: Q04DX003 (oral), vehicle: water)?
**A.** 222 % of control

**Q.** And the T/C (dose: 100.0 mg/kg/injection, schedule: Q04DX003 (oral), vehicle: water)?
**A.** 104 % of control
